Laboratory results: patent US6362222B1, “Analgesic use of podophyllotoxin for treating pain conditions in female genital organs” (priority 1998, dated 2002)

Columns and labels:
[1] = Topical podophyllotoxin on sore vestibular (Bartholin's) glands in vulvodynia patients; type: in vivo, human
Text: In the treatment, the vagina is first washed with a 3% acetum solution. The vulva, especially Batrholin's glands are examined by means of colposcopy. A second object is a slightly uneven, netlike area located obliquely behind, at the sides of the outer mouth of the urethra. Sometimes small hyperemetic cavities, small vestibular glands are found in the vulvar region, which are not sore in a healthy person. In vulvodynia they are typically very tender to touch and red, ligulate and with embossed edges. In vulvodynia Bartholin's gland orifices are sometimes closed. These points often start bleeding at palpation.
In accordance with the invention, the sore glands are pencilled with podophyllotoxin. Any commonly used vaginal ointment is applied on the pencilled area. The treatment is repeated twice if necessary at an interval of about one month. The treatment is usually not effective at once, however, in the course of typically two weeks there is no more pain.
The gland orifices were pencilled with a 5% podophyllotoxin solution. The pain during intercourse disappeared at the end of a couple of weeks. After about two years the pain recurred. Podophyllotoxin was applied to the gland orifices anew. At the end of two months the lefthand, still tender gland orifice was pencilled once more.
The patient had undergone hysterectomy because of prolapse and extended cervix. However, the prolapse recurred (enterocele), and was resectioned from below. After the surgery the patient suffered from vaginal pain, which was stronger on the left side. There was no inflammation, the pain persisted. A gynecologist made repeated examinations, found nothing wrong and consulted a neurologist, who made the diagnosis inexplicable postoperative pain. […] Podophyllotoxin was applied twice at one month's interval and once more the following day.
(§1) The patient hade undergone hysterectomy, suffered from pain, a small muscular tumour and adhesions after endometriosis. The patient had suffered from incontinence for about a year. There had been no distinct inflammations. […] They were pencilled. Nevertheless, after about six months the patient returned to the clinic because of pain in the lower abdomen, the back and a sting in the urinary bladder. The sore vaginal peaks were pencilled with podophyllotoxin once more.
A total of 151 patients were treated over a period of two years, and among these 75% had typical vulvodynia symptoms and the remainder atypical other symptoms, such as disorders of the urinary tracts, vaginal dryness, itching and recurrent candidosis. However, intense tenderness to touch of the vestibular glands was typical for all of the patients.
All of the patients were treated in the same way: first the vagina was washed with a 3% solution of acetum, the sore glands were treated with podophyllotoxin and vaginal ointment was applied on this. 46 patients were treated only once and 6 patients were treated 10 times, the patients were treated 2.6 times on the average.

[2] = Topical podophyllotoxin on vaginal peaks in patients with post-hysterectomic pain; type: in vivo, human
Method: In accordance with the invention podophyllotoxin can also be used for intense tenderness to touch and palpation in the upper vaginal corners with post-hysterectomic pain, sometimes also with bleed in. After the rinse with acetum the vaginal corners are treated with podophyllotoxin, and vaginal ointment can be applied on the treated areas if necessary. The treatment can be repeated at least three times if necessary, at intervals of either one day or one month.
At the end of about three years the patient returned to the gynecologic outpatient clinic and complained about a strong continual pain in the lower part of the abdomen and a pushing feeling in the rectum. […] The vaginal peaks were treated locally with podophyllotoxin three times at two days' intervals. Especially the right corner was very tender to palpation. After the third treatment there was no more pain.
as §1
Post-hysterectomic pain was examined in 26 patients. The vagina was first washed with a 3% acetum solution and then the vaginal peaks were pencilled with podophyllotoxin. A vaginal ointment was used occasionally on the pencilled areas. The treatment was repeated 1 to 3 times at about one month's intervals.

COc1cc([C@@H]2c3cc4c(cc3[C@H](O)[C@H]3COC(=O)[C@H]23)OCO4)cc(OC)c1OC [podophyllotoxin]
pain during intercourse after treatment ([1]; Example 1, one patient, Bartholin's gland orifices pencilled with 5% podophyllotoxin solution, at the end of a couple of weeks): disappeared | pain after repeat treatment of recurrence ([1]; Example 1, recurrence after about two years, gland orifices pencilled anew, left orifice once more after two months, in the course of a couple of weeks): disappeared completely | symptoms after treatment ([1]; Example 2, one patient, postoperative vaginal pain, left Bartholin's gland and right side of urethra, applied twice at one month's interval and once more the following day): free of symptoms | pain in the glands after treatment ([1]; Example 3, one patient, sore glands in the introitus pencilled once, after one month): no pain in the glands | number of patients free of symptoms ([1]; Example 4, 151 patients treated, 2.6 times on average, about two weeks after the treatment): about one hundred | number of patients considered to have probably recovered ([1]; Example 4, 151 patients treated, follow-up maximum more than 5 years): 40 patients | immediate effect on pain ([1]; directly after treatment, before relief in the course of a couple of weeks): increases the pain | pain after treatment (general statement) ([1]; sore glands pencilled, repeated twice if necessary at about one month interval, in the course of typically two weeks): no more pain | pain at small red cavities of the front part of the vulva ([1]; vestibulitis type condition): relieved | pain after treatment of vaginal peaks ([2]; Example 2, same patient about three years later, vaginal peaks treated three times at two days' intervals, after the third treatment): no more pain | incontinence after treatment of vaginal peaks ([2]; Example 3, control one month after last pencilling of vaginal peaks): disappeared | patient's state at control after treatment of vaginal peaks ([2]; Example 3, sore vaginal peaks pencilled again about six months later, control one month later): completely recovered | number of patients remaining free of symptoms during the control period ([2]; Example 5, 26 patients, vaginal peaks pencilled 1 to 3 times at about one month's intervals, maximum control period 9 months): 17 patients | results of treatment (general statement) ([2]; upper vaginal corners treated, repeated at least three times if necessary): extremely good
